# From patent US7504412B2, “Imidazopyridine derivatives” (Banyu Pharmaceuticals, Co., Ltd., priority 2003, dated 2009)
# Counter-ions that a name gives are not always drawn.
# Experiments:
# [1] = biological target: T1, human MCH-1R (Homo sapiens, UniProt Q99705); assay: MCH binding inhibition test; conditions: membrane samples from MCH-1R expression CHO-K1 cells, 50 pM [125I]MCH, 25° C., one hour; read-out: IC50 (50% inhibition concentration to specific [125I]MCH binding)
# T1 construct: expressed in transfected cells; host or cells: CHO-K1 (American Type Culture Collection), membrane samples
# Method: A human MCH-1R encoding cDNA sequence [FEBS Letters, 398, 253 (1996); Biochimica et Biophisica Acta, 1401, 216 (1998)] was cloned to plasmid vector pEF/mic/cyto (Invitrogen Corporation). The obtained expression vector was transfected to a host cell CHO-K1 (American Type Culture Collection) using lipofectamine plus reagent (Life Technology Inc.) to provide MCH-1R expression cells.
# Membrane samples prepared from the MCH-1R expression cells were incubated with each test compound and 50 pM of [^125I]MCH (NEN Co.), in an assay buffer (50 mM Tris buffer comprising 10 mM magnesium chloride, 2 mM ethylenediamine tetraacetate, 0.01% bacitracin and 0.2% bovine serum albumin; pH 7.4) at 25° C. for an hour, followed by filtration through Glass Filter GF/C (Wattman Co.). After washing the glass filter with 50 mM Tris buffer (pH7.4) comprising 10 mM magnesium chloride, 2 mM ethylenediamine tetraacetate and 0.04% Tween-20, radio activity on the glass filter was measured. Non-specific binding was measured in the presence of 1 μM human MCH and 50% inhibition concentration (IC50 value) of each test compound to specific [^125I] MCH binding was determined.
# [2] = test system: MCH-induced feeding behavior; assay: Antagonism test to MCH-induced feeding behavior; format: in vivo, rat; conditions: male SD rats satiated with high fat diet; 10 or 30 mg/kg oral, one hour before MCH 5 μg/head into third ventricle
# Method: Ketamine-xylazine anesthetized (74 and 11 mg/kg single intraperitoneal administration) male SD rats (9-12 weeks old) were inserted with chronic guide cannule (26 gauge) into their third ventricle as fixed at a set cerebral location with dental resin. The position of the front end of the guide cannula was set to be 2.2 mm behind the bregma on median line and at a depth of 8 mm from the cranial surface. After two weeks' recovery term, the rats were fed with high fat diet for about 4 hours to satiation. Thereafter a needle (33 gauge) which was connected to a microsyringe was inserted into the guide cannula and through which melanin concentrating hormone (MCH, 5 μg/1 μL/head, as dissolved in artificial liquor cerebrospinalis) was administered into each rat's third ventricle. The compound of Example 17 (10 or 30 mg/kg) as suspended in 0.5% aqueous methylcellulose solution was orally administered to the rats an hour before the MCH administration. The rats were successively fed with high fat diet, and their feed intake during the two hours following the MCH administration was measured.
# In this test, the feed intake in the case where MCH and artificial liquor cerebrospinalis (aCSF) alone was administered in place of the compound of the present invention was used as the reference.
# T1 sequence (Q99705 whole entry): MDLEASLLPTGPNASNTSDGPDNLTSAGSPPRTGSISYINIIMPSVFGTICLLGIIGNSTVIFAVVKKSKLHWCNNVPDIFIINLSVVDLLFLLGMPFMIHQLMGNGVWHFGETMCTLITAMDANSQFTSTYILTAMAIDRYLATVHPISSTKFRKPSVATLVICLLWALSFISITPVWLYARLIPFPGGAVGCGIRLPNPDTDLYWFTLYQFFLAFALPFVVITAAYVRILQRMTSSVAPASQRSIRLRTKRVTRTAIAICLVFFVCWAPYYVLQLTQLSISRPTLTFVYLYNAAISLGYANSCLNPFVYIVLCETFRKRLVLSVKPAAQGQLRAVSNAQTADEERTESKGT
SMILES,IC50 [1] [nM],feed intake during the two hours following MCH administration [2]
"CC(C)c1cn2cc(NC(=O)c3ccc(-c4ccc(F)cc4)cc3)ccc2n1 [Example 2, 4′-Fluoro-N-(2-isopropylimidazo[1,2-a]pyridin-6-yl)[1,1′-biphenyl]-4-carboxamide]",3.1,–
"Cc1c(C2CC2)nc2ccc(NC(=O)c3ccc(-c4ccc(F)cc4)cn3)cn12 [Example 14, N-(2-cyclopropyl-3-methylimidazo[1,2-a]pyridin-6-yl)-5-(4-fluorophenyl)-2-pyridinecarboxamide hydrochloride]",2,–
"Cc1c(C2CC2)nc2ccc(NC(=O)c3ccc(-c4ccccn4)cc3)cn12 [Example 17, N-(2-cyclopropyl-3-methylimidazo[1,2-a]pyridin-6-yl)-4-(2-pyridyl)benzamide hydrochloride]",3.3,dose-dependently inhibited increase in the amount of feed intake induced by the MCH
"Cc1c(C2CC2)nc2ccc(NC(=O)CCc3ccc(C(F)(F)F)cc3)cn12 [Example 18, N-(2-cyclopropyl-3-methylimidazo[1,2-a]pyridin-6-yl)-3-[4-(trifluoromethyl)phenyl]propanamide]",4.3,–
"Cc1c(C(C)(C)O)nc2ccc(NC(=O)c3ccc(-c4ccc(C(F)(F)F)cn4)cc3)cn12 [Example 32, N-[2-(1-hydroxy-1-methylethyl)-3-methylimidazo[1,2-a]-pyridin-6-yl]-4-[5-(trifluoromethyl)-2-pyridyl]benzamide]",9.5,–
"O=C(Nc1ccc2nc(C3CC3)c(CO)n2c1)c1ccc(-c2ccc(C(F)(F)F)cc2)cc1 [Example 36, N-[2-cyclopropyl-3-(hydroxymethyl)imidazo[1,2-a]pyridin-6-yl]-4′-(trifluoromethyl)[1,1′-biphenyl]-4-carboxamide]",10.5,–
